One may read the viability, T/C as the ratio of treated to control. What is called IC50 is the point on the concentration scale where inhibition reaches its midpoint.

The assay deals with 379773-124-R-J2-PDC spheroid viability. In words: Anticancer human tumor 379773-124-R-J2-PDC patient-derived endometrial carcinoma cell line growth inhibition [POLQ]. The settings on record: spheroids with HUVEC and MSC; for viability, T/C: stronger effect = lower value. As for the experimental part:
Multicellular complex tumor spheroid response to Polymerase (POL) inhibitors (novobiocin, ART-558, RP6685) in combination with a variety of drugs and investigational agents in selected tumor cell lines
The POL inhibitors (novobiocin, ART-558, and RP6685) were evaluated both individually and in combination with standard of care and investigational anticancer small molecules within a complex spheroid model of solid tumors. . Complex spheroids include a stromal component modeled by human endothelial cells (HUVEC) and fibroblasts modeled by human mesenchymal stem cells (MSCs). The concentration ranges selected for each drug and investigational agent were based upon clinically achievable concentrations if the clinical Cmax of the agent was known.
Compounds. The drugs and investigational agents: novobiocin (NSC847541), ART-558 (NSC835418), RP-6685 (NSC848927), peposertib (NSC802822), ceralasertib (NSC780249), elimusertib (NSC800525), camonsertib (NSC841442), AZD-1390 (NSC803789), olaparib (NSC753686), talazoparib (NSC767125), rucaparib (NSC756644), sotorasib (NSC818433), MRTX-1133 (NSC836407), SN-38 (NSC673596), topotecan (NSC609699), epotoside (NSC141540), doxorubicin (NSC123127), gemcitabine (NSC613327), 5-fluorouracil (NSC19893), paclitaxel (NSC125973), vemurafenib (NSC761431), MSA-2 (NSC828583), SN-011 (NSC837082), adavosertib (NSC754352), prexasertib (NSC758257), carboplatin (NSC241240) and oxaliplatin (NSC266046), were obtained from the National Cancer Institute (NCI) Developmental Therapeutics Program Chemical Repository (21). The FDA-approved anticancer drug set is available from the Developmental Therapeutics Program at https://dtp.cancer.gov/organization/dscb/obtaining/. […] The stock solutions were prepared in dimethyl sulfoxide (DMSO, Sigma-Aldrich, St. Louis, MO, cat. D2650), except for the platinum compounds which were prepared in saline (Quality Biological, Gaithersburg, MD, cat. 114-055-101), at 800-fold the tested concentration and stored at -70 degrees C prior to their use. All drugs and investigational agents were tested over a range starting from a high concentration at or near the clinical Cmax and decreasing in half-log increments. If the clinical Cmax for an agent had not been determined, the highest concentration tested was 10 microM, except for SN-38, which was tested at a high concentration of 1 microM.
Cell Culture. All cells were maintained in an incubator at 37 degrees C and 5% CO2 with 95% humidity. The PDC lines were cultured according to standard operating procedures established by the NCI PDMR (https://pdmr.cancer.gov). Table 3 of the manuscript, lists the cell lines along with the number of the three cell types plated to form the mct-spheroids and media for tumor cell growth. After thawing, all PDC lines, except 997537-175-T-J1-PDC and 415267-285-R-J2-PDC, were cultured in Matrigel-coated flasks prepared with a working solution of 1X Ham's F-12 nutrient mix, without supplementation (Thermo Fisher Scientific, cat. 11765054), 100 U/mL penicillin-streptomycin (Thermo Fisher Scientific, cat. 15140122), and 2.5% Matrigel (Corning Inc., Corning, NY, cat. 354248) for the first three passages. The two PDC lines 997537-175-T-J1-PDC and 415267-285-R-J2-PDC were cultured on uncoated flasks. The 857933-349-R-J2-PDC line was cultured in 6C/Colon 1B media containing advanced DMEM/F-12 (Thermo Fisher Scientific, cat. 12634028), 10 mM HEPES (Thermo Fisher Scientific, cat. 15630080), 1X GlutaMAX supplement (Thermo Fisher Scientific, cat. 35050061), 0.1 mg/mL primocin (InvivoGen, San Diego, CA, cat. ant-pm-2), 10% defined fetal bovine serum, heat inactivated (HyClone Laboratories Inc., Logan, UT, cat. SH30070.03HI), 50% L-WRN conditioned media (ATCC, cat. CRL-3276), 1.25 mM N-Acetyl-L-cysteine (Sigma-Aldrich, cat. A9165), 10 mM nicotinamide (Sigma-Aldrich, cat. N0636), 1X B-27 supplement (Thermo Fisher Scientific, cat. 17504044), 1X N-2 supplement (Thermo Fisher Scientific, cat. […]

Each structure is given as a SMILES string. Values joined by “and” are separate entries in the source; they are usually repeats but may differ in a detail not shown here. Equal entries are not always repeated. Where only a bound is given, the exact number is not on record here.
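Note: spheroids exposed to drugs for seven days before readout.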
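Throughout, for viability, T/C: percent viability relative to DMSO vehicle control taken as 100%.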

In the case of `COc1ccc([C@@H](O)c2cc(-c3ncnc4cc(N5CCOCC5)ccc34)c(F)cc2Cl)nn1`, the viability, T/C reads like this: (compound 0.0316 µM) 92.5% and 98.9% and 94.2%; (compound 0.1 µM) 91.3% and 93.2% and 82.2%; (compound 0.316 µM) 79.4% and 93.5% and 84.7%; (compound 1 µM) 99.3% and 110% and 87.4%; (compound 3.16 µM) 67.8% and 76.8% and 86.3%; (compound 10 µM) 37.9% and 43.7% and 38.1%. For the same molecule, under “curve of compound”, the IC50 is 6.28 µM and 8.03 µM and 7.52 µM.
In the case of `CC[C@@]1(O)C(=O)OCc2c1cc1n(c2=O)Cc2cc3c(CN(C)C)c(O)ccc3nc2-1`, the viability, T/C was 86.7% and 95.5% and 87.2% (compound 0.000316 µM); 82.9% and 87.3% and 91.6% (compound 0.001 µM); 97.8% and 92.2% and 75.9% (compound 0.00316 µM); 78.5% and 86.5% and 81.9% (compound 0.01 µM); 45.8% and 43% and 45.2% (compound 0.0316 µM); 14.7% and 26.1% and 10.6% (compound 0.1 µM). The IC50 (curve of compound) was 0.0272 µM and 0.0263 µM and 0.0271 µM.
As for `CCc1cc2c(N3CCc4c(cc(Cn5ccnc5)cc4-c4cn(C)nc4C(F)(F)F)C3=O)cc(C)nc2c(OC)n1` + Cc1cccc(N(C)C(=O)C2C(O)CCN2c2nc(C)cc(C(F)(F)F)c2C#N)c1, the IC50 is over 10 µM (curve of first compound, second compound 0.0316 µM); over 10 µM (curve of first compound, second compound 0.1 µM); over 10 µM (curve of first compound, second compound 0.316 µM); 9 µM (curve of first compound, second compound 1 µM); 6.79 µM (curve of first compound, second compound 3.16 µM); 1.93 µM (curve of first compound, second compound 10 µM). In addition, the viability, T/C is, setting by setting: (second compound 0.0316 µM, first compound 0.0316 µM) 77.2%; (second compound 0.0316 µM, first compound 0.1 µM) 80%; (second compound 0.0316 µM, first compound 0.316 µM) 61.9%; (second compound 0.0316 µM, first compound 1 µM) 62.4%; (second compound 0.0316 µM, first compound 3.16 µM) 64%; (second compound 0.0316 µM, first compound 10 µM) 48.9%. Besides, the viability, T/C (second compound 0.1 µM, first compound 0.0316 µM) is 92.7%; the viability, T/C (second compound 0.1 µM, first compound 0.1 µM) is 69.5%; the viability, T/C (second compound 0.1 µM, first compound 0.316 µM) was 56.1%; the viability, T/C (second compound 0.1 µM, first compound 1 µM) is 58.4%; the viability, T/C (second compound 0.1 µM, first compound 3.16 µM) is 55.4%; the viability, T/C (second compound 0.1 µM, first compound 10 µM) is 46.9%. The viability, T/C (second compound 0.316 µM, first compound 0.0316 µM) was 78.9%; the viability, T/C (second compound 0.316 µM, first compound 0.1 µM) is 72.9%; the viability, T/C (second compound 0.316 µM, first compound 0.316 µM) is 67.8%; the viability, T/C (second compound 0.316 µM, first compound 1 µM) was 59.4%; the viability, T/C (second compound 0.316 µM, first compound 3.16 µM) is 60.8%; the viability, T/C (second compound 0.316 µM, first compound 10 µM) was 51.4%. Further, the viability, T/C by setting is: (second compound 1 µM, first compound 0.0316 µM) 77.3%; (second compound 1 µM, first compound 0.1 µM) 68.2%; (second compound 1 µM, first compound 0.316 µM) 68.1%; (second compound 1 µM, first compound 1 µM) 59%; (second compound 1 µM, first compound 3.16 µM) 62.4%; (second compound 1 µM, first compound 10 µM) 46.6%. The viability, T/C was 76.4% (second compound 3.16 µM, first compound 0.0316 µM); 73.6% (second compound 3.16 µM, first compound 0.1 µM); 61% (second compound 3.16 µM, first compound 0.316 µM); 53.9% (second compound 3.16 µM, first compound 1 µM); 51.9% (second compound 3.16 µM, first compound 3.16 µM); 48.1% (second compound 3.16 µM, first compound 10 µM). Moreover, the viability, T/C runs as follows: (second compound 10 µM, first compound 0.0316 µM) 70.7%; (second compound 10 µM, first compound 0.1 µM) 64%; (second compound 10 µM, first compound 0.316 µM) 61.5%; (second compound 10 µM, first compound 1 µM) 49.2%; (second compound 10 µM, first compound 3.16 µM) 50.9%; (second compound 10 µM, first compound 10 µM) 41.2%.
In the case of `COc1cc2cc(C(=O)CCC(=O)O)sc2cc1OC`, the viability, T/C is 89.3% and 91.6% (2×) (compound 0.0316 µM); 85.4% and 96.8% and 107% (compound 0.1 µM); 85.8% and 90.2% and 80.9% (compound 0.316 µM); 94.6% and 96.7% and 94% (compound 1 µM); 105% and 95.3% and 92.9% (compound 3.16 µM); 91.6% and 79.1% and 73.2% (compound 10 µM). For the same molecule, under “curve of compound”, the IC50 is over 10 µM.

(Values after PubChem BioAssay AID1963848 (Molecular Pharmacology Branch, DTP, NCI, 2024).)
